The assay addresses CrGSNOR1 (Chlamydomonas reinhardtii, UniProt A0A2K3D6R4). Kind of assay: X-ray crystal structure, […] Å. To be noted: co-crystallised with 1 mM NAD^+, pH 8.5; cofactor-binding domain.

Each structure is given as a SMILES string.

Sequence of CrGSNOR1 (A0A2K3D6R4 1-378): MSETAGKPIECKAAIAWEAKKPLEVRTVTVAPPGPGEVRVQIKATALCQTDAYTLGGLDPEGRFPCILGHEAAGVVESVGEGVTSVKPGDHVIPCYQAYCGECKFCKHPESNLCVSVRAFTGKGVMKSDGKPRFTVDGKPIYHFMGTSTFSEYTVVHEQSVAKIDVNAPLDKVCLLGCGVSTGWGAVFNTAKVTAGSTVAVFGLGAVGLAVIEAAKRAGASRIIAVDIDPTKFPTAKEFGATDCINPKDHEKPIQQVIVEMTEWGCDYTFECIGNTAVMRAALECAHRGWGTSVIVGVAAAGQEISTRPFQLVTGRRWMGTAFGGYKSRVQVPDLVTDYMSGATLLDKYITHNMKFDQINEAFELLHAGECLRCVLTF

For `NC(=O)c1ccc[n+]([C@@H]2O[C@H](COP(=O)(O)OP(=O)(O)OC[C@H]3O[C@@H](n4cnc5c(N)ncnc54)[C@H](O)[C@@H]3O)[C@@H](O)[C@H]2O)c1` [NAD^+], the “X-ray crystal structure, 2.3 Å” value is “crystal structure of CrGSNOR1 under both apo- and holo-form (NAD^+-CrGSNOR1)”.

Source of the values: publication PMC7744773 (Redox Biology, 2020).
